# Experiments:
# [1] = test system: Mero14 cells; experiment: Mero14 proliferation and cell viability assay (CTG); type: cell-based; conditions: Mero14 cell line, 144 hours
# Experimental: Mero14 cells were trypsinised, counted and plated at 400 cells/well in 200 μl of growth media in 96 well flat bottom tissue culture treated plates. The plated cells were incubated overnight at 37° C., 5% CO2 before being treated with compounds in triplicate for each assay point. 50 μl of the serially diluted compound was added to each well giving a final DMSO concentration of 0.5% per well and a total volume of 250 μl per well. The treated cells were incubated for 144 hours (6 days) at 37° C., 5% CO2. Following compound treatment the remaining viable cells were detected using the Promega CellTiter-Glo 2.0 assay as follows: 150 μl of media was removed from each of the wells to be assayed and 100 μl of room temperature CellTiter-Glo 2.0 reagent was added. The plate was placed on an orbital shaker at 500 rpm at room temperature for 2 minutes, and then incubated without shaking for a further 10 minutes at room temperature. 150 μl of cell lysate was removed from each well and dispensed into a single well of a white opaque 96 well plate.
# Luminescence at 545 nm was read using a BMG CLARIOstar plate reader. The luminescent signal was directly proportional to number of viable cells, the percent of viable cells relative to the DMSO control was then calculated for each assay point. Percent viability relative to DMSO control is plotted against compound concentration and a curve fitted with non-linear regression in GraphPad Prism software. IC50 values were calculated using GraphPad Prism software as follows: For Relative IC50 values, a non-constrained four-parameter logistic curve fit was used (Sigmoidal, 4PL, X is concentration). For Absolute IC50 values the baseline was constrained to Y=0 (Absolute IC50, X is concentration). Area Under the Curve (AUC): Prism computed area-under-the-curve by the trapezoidal method. The analysis sees a fitted curve as simply a series of connected XY points. Prism simply computes the area under the “curve” defined by connecting the points by straight lines. The units of the AUC are the units of the Y axis times units of the X axis.
# [2] = test system: MSTO-211H cells; experiment: MSTO-211H proliferation and cell viability assay (CTG); type: cell-based; conditions: Homo sapiens, MSTO-211H cell line, 144 hours
# Experimental: MSTO-211H cells were trypsinised, counted and plated at the specified cell density in 200 μl of growth media in 96 well flat bottom tissue culture treated plates. The plated cells were incubated overnight at 37° C., 5% CO2 before being treated with compounds in triplicate for each assay point. 50 μl of the serially diluted compound was added to each well giving a final DMSO concentration of 0.5% per well and a total volume of 250 μl per well. The treated cells were incubated for 144 hours (6 days) at 37° C., 5% CO2. Following compound treatment, the remaining viable cells were detected using the Promega CellTiter-Glo 2.0 assay as follows: 150 μl of media was removed from each of the wells to be assayed and 100 μl of room temperature CellTiter-Glo 2.0 reagent was added. The plate was placed on an orbital shaker at 500 rpm at room temperature for 2 minutes, and then incubated without shaking for a further 10 minutes at room temperature. 150 μl of cell lysate was removed from each well and dispensed into a single well of a white opaque 96 well plate. Luminescence at 545 nm is read using a BMG CLARIOstar plate reader. The luminescent signal was directly proportional to number of viable cells, the percent of viable cells relative to the DMSO control was then calculated for each assay point. Percent viability relative to DMSO control was plotted against compound concentration and a curve fitted with non-linear regression in GraphPad Prism software. IC50 values were calculated using GraphPad Prism software as follows: For Relative IC50 values a non-constrained four-parameter logistic curve fit was used (Sigmoidal, 4PL, X is concentration). For Absolute IC50 values the baseline was constrained to Y=0 (Absolute IC50, X is concentration). Area Under the Curve (AUC): Prism computes area-under-the-curve by the trapezoidal method. The analysis sees a fitted curve as simply a series of connected XY points. Prism simply computes the area under the “curve” defined by connecting the points by straight lines. The units of the AUC are the units of the Y axis times units of the X axis.
# [3] = target: TEAD4 (Homo sapiens, UniProt Q15561); experiment: TEAD thermal shift assay (TSA); type: binding
# Source text: (§1) Thermal shift assay (TSA) is a biophysical method to evaluate stability of proteins with change in temperature. The assay measures thermal denaturation temperature in varying conditions such as different drug concentration. For this example, fluorogenic dye was used that bind to unfolded proteins. SYPRO Orange binds non-specifically to hydrophobic surfaces, and water strongly quenches its fluorescence. When the protein unfolds, the exposed hydrophobic surfaces bind the dye, resulting in an increase in fluorescence by excluding water. Detergent micelles also bind the dye and increase background noise dramatically. Binding of small molecules to proteins leads to a stabilization against to thermal denaturation with the degree of thermal stabilization proportional to the strength of binding.
# (§2) The study described in this example investigated the change in melting temperature (ΔTm) of TEAD isoforms 1˜4 when treated with TEAD inhibitors. Compound 1-1-a known strong TEAD1 and weak TEAD2 inhibitor; as well as Compound 1-4-a pan-TEAD inhibitor were used as controls.
# (§3) Tris-HCL was dissolved in 5 mL of Cell culture grade water and allowed to dissolve completely. The pH was adjusted to 8 using NaOH. Additional assay buffer components were added in the order listed above. The buffer was mixed slowly.
# (§4) Assay buffer was prepared according to the procedures outlined above and dispensed into test wells. Spyro orange was added to a concentration of 5× in the assay buffer, followed by test compound stock solution which was added to a concentration of 10 μM or 30 μM in the assay buffer.
# (§5) The melt cycle was performed in Bio-RAD PCR instrument from 20-95° C. with ramp rate of 1° C./min.
# [4] = target: TEAD2 (Homo sapiens, UniProt Q15562); experiment: TEAD thermal shift assay (TSA); type: binding
# Source text: as §1, §2, §3, §4, §5
# [5] = target: TEAD3 (Homo sapiens, UniProt Q99594); experiment: TEAD thermal shift assay (TSA); type: binding
# Source text: as §1, §2, §3, §4, §5
# [6] = target: TEAD1 (Homo sapiens, UniProt P28347); experiment: TEAD thermal shift assay (TSA); type: binding
# Source text: as §1, §2, §3, §4, §5
# [7] = ratio of protein to compound 1:1
# [8] = ratio of protein to compound 1:3
# Chain of TEAD1 (P28347 whole entry): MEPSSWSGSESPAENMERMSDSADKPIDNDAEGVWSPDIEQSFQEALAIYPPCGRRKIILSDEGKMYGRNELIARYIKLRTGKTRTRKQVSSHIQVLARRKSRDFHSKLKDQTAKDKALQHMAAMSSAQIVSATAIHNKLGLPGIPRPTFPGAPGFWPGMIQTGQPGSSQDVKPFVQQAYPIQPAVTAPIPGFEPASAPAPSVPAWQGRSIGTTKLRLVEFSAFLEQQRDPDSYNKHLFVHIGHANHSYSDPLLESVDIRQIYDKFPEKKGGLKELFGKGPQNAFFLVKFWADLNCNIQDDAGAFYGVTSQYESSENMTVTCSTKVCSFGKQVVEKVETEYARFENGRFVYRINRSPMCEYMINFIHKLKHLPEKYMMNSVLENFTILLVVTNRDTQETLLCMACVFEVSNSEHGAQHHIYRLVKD
# Chain of TEAD3 (Q99594 whole entry): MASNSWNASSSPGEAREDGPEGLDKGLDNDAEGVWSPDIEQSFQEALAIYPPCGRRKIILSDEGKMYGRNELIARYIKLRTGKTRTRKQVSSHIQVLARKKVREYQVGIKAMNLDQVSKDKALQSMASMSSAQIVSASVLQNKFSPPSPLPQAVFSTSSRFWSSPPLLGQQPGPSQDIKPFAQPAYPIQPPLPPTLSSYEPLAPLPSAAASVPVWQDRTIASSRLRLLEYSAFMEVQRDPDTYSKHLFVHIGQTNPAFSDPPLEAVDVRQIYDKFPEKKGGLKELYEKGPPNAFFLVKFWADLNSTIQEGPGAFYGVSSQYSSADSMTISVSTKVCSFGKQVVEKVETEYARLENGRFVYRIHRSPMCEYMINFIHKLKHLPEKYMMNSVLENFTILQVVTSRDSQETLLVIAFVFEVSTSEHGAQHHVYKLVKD
# Chain of TEAD4 (Q15561 whole entry): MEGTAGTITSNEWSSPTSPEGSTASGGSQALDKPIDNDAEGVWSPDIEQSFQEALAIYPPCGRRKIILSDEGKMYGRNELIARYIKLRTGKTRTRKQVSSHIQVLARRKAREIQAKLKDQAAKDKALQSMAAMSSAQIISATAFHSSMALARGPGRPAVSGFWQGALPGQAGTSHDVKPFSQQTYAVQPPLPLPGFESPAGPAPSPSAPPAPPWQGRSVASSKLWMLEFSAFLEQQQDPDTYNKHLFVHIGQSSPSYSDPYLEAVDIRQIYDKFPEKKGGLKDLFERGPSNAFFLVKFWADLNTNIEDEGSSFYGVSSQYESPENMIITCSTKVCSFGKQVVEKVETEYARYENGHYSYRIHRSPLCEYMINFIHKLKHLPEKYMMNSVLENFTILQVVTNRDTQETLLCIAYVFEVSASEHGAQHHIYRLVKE
# Chain of TEAD2 (Q15562 whole entry): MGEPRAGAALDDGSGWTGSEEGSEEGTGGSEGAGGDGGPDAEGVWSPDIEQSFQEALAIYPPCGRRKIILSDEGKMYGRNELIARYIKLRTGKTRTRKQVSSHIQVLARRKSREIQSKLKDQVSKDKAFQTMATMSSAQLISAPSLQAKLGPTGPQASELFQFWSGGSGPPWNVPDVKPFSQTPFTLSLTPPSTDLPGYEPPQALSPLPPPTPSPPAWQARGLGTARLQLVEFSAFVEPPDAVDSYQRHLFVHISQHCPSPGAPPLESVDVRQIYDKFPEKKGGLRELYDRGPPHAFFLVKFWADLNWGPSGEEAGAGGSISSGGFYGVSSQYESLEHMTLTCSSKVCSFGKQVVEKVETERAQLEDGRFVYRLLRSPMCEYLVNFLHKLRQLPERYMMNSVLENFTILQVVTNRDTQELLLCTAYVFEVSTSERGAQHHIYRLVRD
SMILES,EC50 [1],EC50 [2],"TEAD4 ΔTm [3, 7]","TEAD4 ΔTm [3, 8]","TEAD2 ΔTm [4, 7]","TEAD2 ΔTm [4, 8]","TEAD3 ΔTm [5, 7]","TEAD3 ΔTm [5, 8]","TEAD1 ΔTm [6, 7]","TEAD1 ΔTm [6, 8]"
"C[C@H](NC(=O)c1cnc2c(C3=CC[C@@H](C(F)(F)F)CC3)cccc2c1)c1ncco1 (single isomer, unassigned) [Compound 19, N-(1-(oxazol-2-yl)ethyl)-8-(4-(trifluoromethyl)cyclohex-1-en-1-yl)quinoline-3-carboxamide]",< 200 nM,< 200 nM,2 °C,3 °C,2 °C,3 °C,2 °C,4 °C,12 °C,12 °C
"C[C@H](NC(=O)c1cnc2c(C3=CC[C@@H](C(F)(F)F)CC3)cccc2c1)c1ncco1 (single isomer, unassigned) [Compound 20, N-(1-(oxazol-2-yl)ethyl)-8-(4-(trifluoromethyl)cyclohex-1-en-1-yl)quinoline-3-carboxamide]",–,–,1.5 °C,3 °C,1 °C,3 °C,2 °C,4.5 °C,10 °C,13 °C
"FC(F)(F)c1ccc(CN2CCC(C3CC(Br)=NO3)CC2)cc1 (centres unmarked) [Compound 1-2, reference compound]",200 to 1000 nM,< 200 nM,–,–,–,–,–,–,–,–
"C=CC(=O)Nc1ccc(C)c(Oc2ccc(Cl)cc2)c1 [Compound 1-3, reference compound]",< 200 nM,< 200 nM,–,–,–,–,–,–,–,–
"C[C@H](NC(=O)c1cnc2c(C3=CCC(C(F)(F)F)CC3)cccc2c1)c1ccccn1 (stereo partly drawn) [Compound 2, N—((S)-1-(pyridin-2-yl)ethyl)-8-(4-(trifluoromethyl)cyclohex-1-en-1-yl)quinoline-3-carboxamide]",–,–,2 °C,4 °C,1 °C,1.5 °C,2 °C,3 °C,10 °C,12 °C
"C[C@H](CO)NC(=O)c1cnc2c(C3=CCC(C(F)(F)F)CC3)cccc2c1 (stereo partly drawn) [Compound 7, N—((R)-1-hydroxypropan-2-yl)-8-(4-(trifluoromethyl)cyclohex-1-en-1-yl)quinoline-3-carboxamide]",< 200 nM,< 200 nM,1.5 °C,3 °C,2 °C,3 °C,2 °C,2 °C,9 °C,11 °C
"O=C(NCc1ncco1)c1cnc2c(C3=CCC(C(F)(F)F)CC3)cccc2c1 (centres unmarked) [Compound 11, N-(oxazol-2-ylmethyl)-8-(4-(trifluoromethyl)cyclohex-1-en-1-yl)quinoline-3-carboxamide]",< 200 nM,< 200 nM,1.5 °C,2.5 °C,3 °C,3 °C,3.5 °C,3 °C,11 °C,11.5 °C
"O=C(NCc1ccn[nH]1)c1cnc2c(C3=CCC(C(F)(F)F)CC3)cccc2c1 (centres unmarked) [Compound 47, N-((1H-pyrazol-5-yl)methyl)-8-(4-(trifluoromethyl)cyclohex-1-en-1-yl)quinoline-3-carboxamide]",< 200 nM,< 200 nM,3 °C,3 °C,2 °C,2 °C,2 °C,3 °C,9 °C,11 °C
"COC[C@H](CO)NC(=O)c1cnc2c(C3=CCC(C(F)(F)F)CC3)cccc2c1 (stereo partly drawn) [Compound 62, N—((S)-1-hydroxy-3-methoxypropan-2-yl)-8-(4-(trifluoromethyl)cyclohex-1-en-1-yl)quinoline-3-carboxamide]",< 200 nM,< 200 nM,2 °C,3 °C,3 °C,3 °C,1 °C,2 °C,9 °C,11 °C
"C[C@H](CO)NC(=O)c1cnc2c(C3=CCC4(CC3)CC(F)(F)C4)cccc2c1 [Compound 165, (R)-8-(2,2-difluorospiro[3.5]non-6-en-7-yl)-N-(1-hydroxypropan-2-yl)quinoline-3-carboxamide]",< 200 nM,< 200 nM,–,–,–,–,–,–,–,–
"C[C@@H](NC(=O)c1cnc2c(C3=CCC4(CC3)CC4)cccc2c1)c1ncco1 [Compound 166, (R)—N-(1-(oxazol-2-yl)ethyl)-8-(spiro[2.5]oct-5-en-6-yl)quinoline-3-carboxamide]",< 200 nM,< 200 nM,–,–,–,–,–,–,–,–

# Reference: US20250223306A1, “TEAD INHIBITORS AND METHODS OF USE” (Sporos BioDiscovery, Inc., priority 2022, published 2025)
